{"source": "patent US20240369511A1", "about": "“INTEGRATED ELECTROCHEMICAL APTASENSORS FOR MEASURING CELL DEATH AND CYTOKINE ACTIVITY FROM INTACT TISSUE SAMPLES” (University of Washington, priority 2023, published 2024)", "key": {"[1]": {"test_system": "cuboids from a human colorectal tumor biopsy", "assay": "CytC in supernatant of drug-treated human tumor cuboids, ELISA", "assay_type": "cell-based", "conditions": "three days treatment; duplicated supernatant samples; same drug concentrations", "description": "(§1) Measurement of CytC from the supernatant of human microdissected cancer tissue cultured with drugs using the aptasensor platform. A study was conducted to assess the aptasensor platform's ability to quantify CytC secretion from human cuboids after drug treatments for three days in culture with Staurosporine, FOLFOX (a combination of fluorouracil and oxaliplatin), and FOLFIRI (a combination of fluorouracil and irinotecan), in comparison to the dimethyl sulfoxide (DMSO) vehicle control. Uniform-sized cuboids were prepared from a human colorectal tumor biopsy. Each drug condition was prepared in duplicate. Subsequently, the supernatants were collected and the level of CytC released from the cuboids after cell death was measured using the aptasensor platform. To validate the platform's measurements, the results were compared with those obtained from ELISA (FIG. 4D). […] In some cases, the platform even indicated higher production rates. Duplicates for both the sensor and for the ELISA were consistent. […] While the trend in measurements for supernatant 1 and supernatant 2 was similar between sensor reading and ELISA, the higher concentration observed in sensor readings may stem from variations in the sensor-specific calibration curves.\n(§2) Human colorectal cancer tumor supernatant. Colorectal tumor biopsy was obtained from a person with metastatic cancer who had been off treatment for a year. […]"}, "[2]": {"test_system": "cuboids from a human colorectal tumor biopsy", "assay": "CytC in supernatant of drug-treated human tumor cuboids, aptasensor platform", "assay_type": "cell-based", "conditions": "three days treatment; Staurosporine 1 μM, FOLFOX 1 μg/mL 5FU+1 μg/mL Oxaliplatin, FOLFIRI 5FU+Irinotecan", "description": "as §1, §2"}}}
{"smiles": "CN[C@@H]1C[C@H]2O[C@@](C)([C@@H]1OC)n1c3ccccc3c3c4c(c5c6ccccc6n2c5c31)C(=O)NC4", "note": "[Staurosporine]", "values": [{"measurement": "CytC production relative to DMSO control vehicle (ELISA)", "setting": "[1]", "value": 4.23, "unit": "fold"}, {"measurement": "CytC production relative to DMSO control vehicle (aptasensor platform)", "setting": "[2]", "value": "~3", "unit": "fold"}]}
